Measurements as given in PubChem BioAssay AID766 (NMMLSC, 2007).

Target: N-formyl peptide receptor 2 (Homo sapiens) (UniProt P25090)
Assay: FPRL1 fluorescent ligand binding inhibitors, dose response, cell-based, flow cytometry, Ki from IC50 (AID 766)
Settings: FPRL1-expressing cells, fluorescent ligand binding competition, binding constant from IC50

N-formyl peptide receptor 2 (Homo sapiens), sequence (P25090 whole entry, looked up): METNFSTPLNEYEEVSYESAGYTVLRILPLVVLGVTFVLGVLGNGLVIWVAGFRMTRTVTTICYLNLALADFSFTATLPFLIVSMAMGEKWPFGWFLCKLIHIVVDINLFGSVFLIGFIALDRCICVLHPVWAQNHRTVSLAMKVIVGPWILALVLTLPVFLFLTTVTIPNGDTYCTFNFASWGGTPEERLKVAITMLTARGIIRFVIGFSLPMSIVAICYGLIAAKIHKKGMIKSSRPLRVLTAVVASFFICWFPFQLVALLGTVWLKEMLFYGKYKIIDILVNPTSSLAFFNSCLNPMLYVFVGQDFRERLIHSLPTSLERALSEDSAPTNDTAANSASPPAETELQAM

SMILES | Ki [µM]
COc1ccc(-c2cc(C(F)(F)F)nc(N3CCN(C(c4ccccc4)c4ccccc4)CC3)n2)cc1OC | > 25.1
CCC(=O)Nc1cc(-c2cn3cccnc3n2)ccc1OC | 6.5
CCOC(=O)N1CCN(c2nc(-c3ccc(OC)c(OC)c3)cc(C(F)(F)F)n2)CC1 | > 30.5
COc1ccc(-c2cn3cccnc3n2)cc1NC(=O)C(C)C | 2.2

Other lines, results leading:

Ki [µM] | SMILES
10 | COc1ccc(-c2cc(C(F)(F)F)nc(N3CCN(Cc4ccccc4)CC3)n2)cc1OC
6 | COc1ccc(CC(=O)Nc2cc(-c3cn4cccnc4n3)ccc2OC)cc1
> 34.7 | O=C(N1CCN(c2nc(-c3ccccc3)c3ccccc3n2)CC1)C(F)(F)F
> 30.2 | COc1ccc(-c2cc(C(F)(F)F)nc(N3CCN(c4ccccc4)CC3)n2)cc1OC
> 39.9 | COc1ccc(-c2cn3cccnc3n2)cc1NC(=O)C1CCCC1
4.1 | COc1ccc(-c2cn3cccnc3n2)cc1NC(=O)C1CC1
